The values below come from patent US20060247220A1, “Preventing the crystallization of cholesterol using oxysterols” (priority 2003, published 2006).

In data set [1] the test system is rabbits. Conditions: fed in diet; cited from earlier work.
The subject of data set [2] is rabbits. The conditions noted are these: in the diet, hydroperoxides added to cholesterol; cited from earlier work.
The subject of data set [3] is rabbits. The conditions noted are these: fed in diet; cited from earlier work. This is another data set of the same source.
Data set [4] can be described thus: Crystallization of cholesterol from solution in sunflower seed oil at room temperature. The data set is classed as physicochemical.
Procedure: Cholesterol was partially oxidized by heating in an oven with air at 80° C.
A 140 mg portion of the partially oxidized cholesterol was placed in a glass tube and 2.6 mL sunflower seed oil was added. The same amount of oil was added to tubes containing 60, 80, 100, 120 and 140 mg of pure cholesterol. All the tubes were held in a heating block at 95° C. until the sterols were dissolved. They were then held at room temperature (about 24° C.) for at least 3 weeks.
To determine the maximum solubilizing effect of the oxysterols, 35 mg and 70 mg of pure cholesterol were added to tubes containing 140 mg of the partially oxidized cholesterol, and 2.6 mL oil was added to each tube. The mixtures were brought into solution as described above, and held at room temperature.

In the case of `CC(C)CCC[C@@H](C)[C@H]1CC[C@H]2[C@@H]3CC=C4C[C@@H](O)CC[C@]4(C)[C@H]3CC[C@]12C` [pure cholesterol, cholesterol], the atherosclerotic lesions result with rabbits [1] is “both elevated serum cholesterol and lesions”. In the data set with rabbits [2], the “atheroma / lesion formation in the aortas” value is recorded as “extensive atheroma formation”. For the same compound, the atherogenicity result in the data set with rabbits [3] was “much more atherogenic to rabbits than oxysterols or a mixture of cholesterol and oxysterols”. For the same compound, the crystallization on standing result in data set [4] (60 mg pure cholesterol in 2.6 mL sunflower seed oil, room temperature) is on record as “crystallization did not occur”. Further, the “time to complete crystallization” value in data set [4] (80, 100, 120 and 140 mg pure cholesterol in 2.6 mL sunflower seed oil, room temperature (about 24° C.)) is given as “about 1 hour”.
